{"source": "patent KR20210106935A", "about": "“암의 예방 또는 치료용 조성물” (연세대학교 산학협력단, priority 2019, dated 2021)", "key": {"[1]": {"test_system": "GSPY2 cells (Thyroid cancer; Papillary)", "experiment": "Cell proliferation IC50 (MTT), patient-derived papillary thyroid cancer cells GSPY2", "type": "cell-based", "details": "Homo sapiens, PTC stage IV, mean ± SEM, read-out: cell proliferation IC50 - half maximal inhibitory concentration"}, "[2]": {"test_system": "GSPY1 cells (Thyroid cancer; Papillary)", "experiment": "Cell proliferation IC50 (MTT), patient-derived papillary thyroid cancer cells GSPY1", "type": "cell-based", "details": "Homo sapiens, PTC stage IV, mean ± SEM, read-out: cell proliferation IC50 - half maximal inhibitory concentration"}, "[3]": {"test_system": "FGFR signaling (e.g. PKC, MEK, p-ERK) (FGFR 시그널링)", "experiment": "FGFR signaling in young-patient-derived cancer cells", "type": "cell-based, human", "details": "young-patient-derived cancer cell lines"}, "[4]": {"test_system": "cancer cells from young patients (어린 환자의 암 세포)", "experiment": "Cell count over 7 days after drug treatment, young-patient papillary thyroid cancer cells", "type": "cell-based, human", "details": "unlike sorafenib, Figs. 4 to 7"}, "[5]": {"test_system": "GSPO1 cells (Thyroid cancer; Papillary)", "experiment": "Cell proliferation IC50 (MTT), patient-derived papillary thyroid cancer cells GSPO1 (second line of the same label)", "type": "cell-based", "details": "Homo sapiens, adult patient, by order of Table 3, PTC stage IV, mean ± SEM, read-out: cell proliferation IC50 - half maximal inhibitory concentration"}, "[6]": {"test_system": "EMT protein (e.g. Snail, Zeb1) (EMT 단백질)", "experiment": "EMT protein expression in young-patient-derived cancer cells", "type": "cell-based, human", "details": "young-patient-derived cancer cell lines"}, "[7]": {"test_system": "GSPO1 cells (Thyroid cancer; Papillary)", "experiment": "Cell proliferation IC50 (MTT), patient-derived papillary thyroid cancer cells GSPO1 (first line)", "type": "cell-based", "details": "Homo sapiens, adult patient, by order of Table 3, PTC stage IV, mean ± SEM, read-out: cell proliferation IC50 - half maximal inhibitory concentration"}}, "data": [{"compound": "CCN(CC)C(=S)SSC(=S)N(CC)CC", "note": "[Disulfiram, 디에틸카르바모티올설파닐 N,N-디에틸카르바모디티오에이트]", "values": [{"measurement": "IC50", "setting": "[1]", "value": 0.304, "unit": "µM"}, {"measurement": "IC50", "setting": "[2]", "value": 0.305, "unit": "µM"}, {"measurement": "inhibition of FGFR signaling", "setting": "[3]", "value": "FGFR 시그널링(예를 들면, PKC, MEK, p-ERK 등)을 억제"}, {"measurement": "inhibition of cancer proliferation (cell number)", "setting": "[4]", "value": "어린 환자에게서 더 효과적으로 암의 증식을 억제하는 것을 확인할 수 있었다"}, {"measurement": "IC50", "setting": "[5]", "value": 0.21, "unit": "µM"}, {"measurement": "effect on EMT protein expression", "setting": "[6]", "value": "EMT 단백질의 발현(예를 들면, Snail, Zeb1 등)을 억제(down-regulated)"}, {"measurement": "IC50", "setting": "[7]", "value": 0.22, "unit": "µM"}]}, {"compound": "CNC(=O)c1cc(Oc2ccc(NC(=O)Nc3ccc(Cl)c(C(F)(F)F)c3)cc2)ccn1", "note": "[Sorafenib, 4-[4-[[[[4-클로로-3-(트리플루오르메틸)페닐]아미노]카르복실]아미노]페녹시]-N-메틸-2-피리딘카르복사미드]", "values": [{"measurement": "IC50", "setting": "[1]", "value": 20.2, "unit": "µM"}, {"measurement": "IC50", "setting": "[2]", "value": 17.2, "unit": "µM"}, {"measurement": "IC50", "setting": "[5]", "value": 10.1, "unit": "µM"}, {"measurement": "effect on EMT protein expression", "setting": "[6]", "value": "FGFR을 기반으로 하는 EMT 단백질 발현에 영향을 주지 않는"}, {"measurement": "IC50", "setting": "[7]", "value": 9.84, "unit": "µM"}]}]}
